Target: human Nav1.8 (Homo sapiens, UniProt Q9Y5Y9)
Experiment: whole-cell manual patch clamp dose-response, […] °C
Assay type: cell-based

Chain of human Nav1.8 (Q9Y5Y9 whole entry): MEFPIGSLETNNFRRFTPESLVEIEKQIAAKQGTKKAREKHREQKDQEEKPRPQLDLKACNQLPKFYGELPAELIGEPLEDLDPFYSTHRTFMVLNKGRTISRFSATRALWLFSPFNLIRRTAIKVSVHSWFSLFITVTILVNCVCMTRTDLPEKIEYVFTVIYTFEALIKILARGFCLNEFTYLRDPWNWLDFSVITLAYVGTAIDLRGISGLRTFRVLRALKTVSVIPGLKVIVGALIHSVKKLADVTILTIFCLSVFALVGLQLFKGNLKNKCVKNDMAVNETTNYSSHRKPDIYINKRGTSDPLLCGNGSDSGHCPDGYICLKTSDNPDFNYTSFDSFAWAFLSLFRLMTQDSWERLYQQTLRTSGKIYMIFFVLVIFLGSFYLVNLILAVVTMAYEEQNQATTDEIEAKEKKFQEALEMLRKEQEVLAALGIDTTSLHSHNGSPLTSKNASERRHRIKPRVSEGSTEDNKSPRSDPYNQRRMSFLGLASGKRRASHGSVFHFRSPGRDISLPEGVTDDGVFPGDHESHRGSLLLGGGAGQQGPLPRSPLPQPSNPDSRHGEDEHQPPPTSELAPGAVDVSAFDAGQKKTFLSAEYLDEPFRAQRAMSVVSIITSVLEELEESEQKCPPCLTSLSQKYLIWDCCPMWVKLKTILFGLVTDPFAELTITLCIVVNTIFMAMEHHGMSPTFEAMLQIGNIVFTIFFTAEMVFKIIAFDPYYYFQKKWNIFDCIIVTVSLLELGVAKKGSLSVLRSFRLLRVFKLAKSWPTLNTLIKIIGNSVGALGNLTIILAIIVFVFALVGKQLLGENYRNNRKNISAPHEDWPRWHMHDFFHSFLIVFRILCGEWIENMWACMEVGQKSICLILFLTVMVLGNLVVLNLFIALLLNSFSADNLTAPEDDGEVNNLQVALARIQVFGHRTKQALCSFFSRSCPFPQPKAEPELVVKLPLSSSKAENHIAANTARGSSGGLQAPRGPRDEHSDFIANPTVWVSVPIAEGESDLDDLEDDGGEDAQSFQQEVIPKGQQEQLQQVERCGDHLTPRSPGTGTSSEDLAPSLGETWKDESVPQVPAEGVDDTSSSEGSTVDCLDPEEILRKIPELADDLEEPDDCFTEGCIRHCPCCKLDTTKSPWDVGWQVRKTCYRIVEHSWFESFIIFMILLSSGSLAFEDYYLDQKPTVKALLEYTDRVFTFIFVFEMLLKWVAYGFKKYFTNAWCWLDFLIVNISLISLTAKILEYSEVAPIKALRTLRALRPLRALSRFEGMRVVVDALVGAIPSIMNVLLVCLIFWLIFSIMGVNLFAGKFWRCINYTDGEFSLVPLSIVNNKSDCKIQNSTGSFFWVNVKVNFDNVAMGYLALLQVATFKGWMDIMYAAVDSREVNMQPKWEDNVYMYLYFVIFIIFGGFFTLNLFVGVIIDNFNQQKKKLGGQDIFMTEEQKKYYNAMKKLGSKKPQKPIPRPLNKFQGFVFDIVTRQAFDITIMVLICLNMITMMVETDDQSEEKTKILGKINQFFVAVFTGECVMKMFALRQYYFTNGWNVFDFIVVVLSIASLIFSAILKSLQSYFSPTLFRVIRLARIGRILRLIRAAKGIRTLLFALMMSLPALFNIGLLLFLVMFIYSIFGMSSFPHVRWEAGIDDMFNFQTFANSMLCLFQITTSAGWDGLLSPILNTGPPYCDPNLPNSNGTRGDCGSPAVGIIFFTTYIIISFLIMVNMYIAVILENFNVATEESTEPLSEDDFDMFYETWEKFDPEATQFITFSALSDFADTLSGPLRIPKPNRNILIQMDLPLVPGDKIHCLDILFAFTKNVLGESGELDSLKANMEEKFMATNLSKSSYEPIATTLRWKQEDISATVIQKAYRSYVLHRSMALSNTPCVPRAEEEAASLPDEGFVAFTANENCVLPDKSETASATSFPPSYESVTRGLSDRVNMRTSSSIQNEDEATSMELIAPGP
Chain of human Nav1.8 (Q9NY72 23-215 partner): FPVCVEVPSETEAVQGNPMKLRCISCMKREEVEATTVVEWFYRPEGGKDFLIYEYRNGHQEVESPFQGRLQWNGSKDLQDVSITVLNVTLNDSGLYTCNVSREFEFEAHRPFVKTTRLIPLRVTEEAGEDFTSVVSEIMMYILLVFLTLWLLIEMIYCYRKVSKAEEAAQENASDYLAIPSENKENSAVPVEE

**Q.** How did the Kd turn out when `COc1c([C@H]2[C@H](C(=O)Nc3ccnc(C(N)=O)c3)O[C@@](C)(C(F)(F)F)[C@H]2C)ccc(F)c1F` [VX-548] was run?
**A.** 72 pM
